Counter-ions that a name gives are not always drawn. Like-named read-outs stand apart in the source and are kept apart here.

In test [1] the test system is Cdc7 (pS53MCM2 levels in SW48 cells). Description: Cdc7 Cell Pharmacodynamics Assay Method 3: pS53MCM2 levels in SW48 cells, 6 hours. It is filed as cell-based. The conditions noted are these: for EC50: Homo sapiens, SW48, 6 h, read-out: Biomarker Method 3 (pEC50) (converted). From the text: This protocol describes a method to investigate the inhibition of Cdc7 activity by measuring pS53MCM2 levels in cells, after treatment with compounds.
• SW48 cells • RPMI 1640 (Sigma, R5886) • 10% FCS (Sera Laboratories International Ltd, EU000F Batch:108005) • 100× L-Glutamine (Invitrogen, 25030-024) • D-Glucose Solution (10%) (Sigma, G8644) • HEPES Buffer Solution (Sigma, 83264) • Sodium Pyruvate (Sigma, S8636) • PBS (Fisger, BP399-4) • Trypsin/EDTA (Invitrogen 25300-054) • 2% BSA in PBS • Cell Extraction Buffer (Invitrogen FNN0011) • Protease inhibitor cocktail (Sigma P-2714) • PMSF 0.3M stock in DMSO (Sigma P7626) • Antibody-rabbit pMCM2 Ser53 (Bethyl #A300-756A) • Antibody-goat MCM2 (Bethyl #A300-122A) • Antibody-goat Anti Rabbit IgG HRP (Perbio Science UK Ltd 31462) • SuperSignal ELISA Pico Chemiluminescent Substrate (Perbio Science UK Ltd 37070) Method • Plate 30,000 SW48 cells per well in standard TC treated 96 well plate in 100 μL complete RPMI 1640 medium. • Allow cells to settle overnight in incubator set at 37° C. and 5% CO2. • Cell treatment: prepare a 384 well plate containing 80 μl PBS/well. The PBS should be at room temperature—to be referred to as intermediate plate. Transfer 2 μL of compound from mother plate to intermediate (daughter plate) 1:40 dilution, then 5 μL intermediate to cell (daughter) plate. • Once all cells are treated place the cells back to the incubator and incubate for 6 hours. • Dilute the capture antibody (total MCM2#A300-122A) 1 in 250 in the required volume of PBS (5 mL per assay plate, plus 5 mL for dead volume) and add 50 μL to each well of a Hybond plate. Seal the plate and incubate at room temperature for a minimum of 2 hours. • Defrost aliquot of Invitrogen Cell Extraction Buffer (FNN0011) on ice and supplement with appropriate volume of both Sigma protease inhibitor cocktail (P-2714) and PMSF (final conc 1 mM from a 1 M stock in DMSO). • After the 6 hour cell treatment time, tap out the media from the assay plates and place them in the −80° C. freezer for at least 5 minutes. • Remove plates from freezer and add 20 μL of ice cold complete lysis buffer, with the multidrop. Incubate cells for 30 minutes at 4° C. • Add 80 μL per well 2% BSA. • Flick out the remaining liquid from the capture plate and transfer 80 μL from the lysis plate to the same wells in the capture/ELISA plate, using the Biomek. Cover with plate seal and incubate plates overnight at 4° C. • Wash plates with PBS, remove any residual remaining liquid and add 50 μL per well of pMCM2 Ser53 antibody (#A300-756A) diluted 1 in 100 in 2% BSA. Cover plate and incubate at room temperature for 2 hours with gentle shaking. • Wash plates with PBS, remove any residual remaining liquid and Incubate with 50 μL goat anti rabbit antibody (1 in 800 dilution in 2% BSA), for 1 hour at room temperature. • Wash plates with PBS, remove any residual remaining liquid and add 50 μL mixed SuperSignal Pico substrate. • Incubate each plate for 5 minutes at room temperature shielding the plates from direct light (with a cover plate). Read plates with the luminescent detection.

The target of test [2] is Cdc7/ASK (Homo sapiens, UniProt O00311). The test is described as follows: Cdc7 Biochemical Assay Method 4: off-chip mobility shift assay (Carna Biosciences). Also noted: purchased Carna Biosciences; host or cells: baculovirus expression system. The conditions noted are these: off-chip MSA, MCM2 peptide, 5 hours; read-out: Biochemical Method 4 (pIC50) (converted). How it is done:
This protocol describes a method for assaying Cdc7/ASK for activity. The assay is an off-chip mobility shift assay (MSA) run at Carna Biosciences.
1. Preparation of Test Compound Solution.
The test compound was dissolved in and diluted with dimethylsulfoxide (DMSO) to achieve 100-fold higher concentration which was specified by the sponsor. Then the solution was further 25-fold diluted with assay buffer to make the final test compound solution. Reference compounds for assay control were prepared similarly.
Cdc7/ASK: Full-length human Cdc7 [1-574(end) amino acids of accession number NP_003494.1] was co-expressed as N-terminal GST-fusion protein (92 kDa) with Dbf4(ASK) [1-674(end) amino acids of accession number NP_006707.1] using baculovirus expression system. GST-Cdc7 was purified by using glutathione sepharose chromatography.
3. Assay Reagents and Procedures
Off-chip Mobility Shift Assay (MSA)
1) The […] of ×2 kinase solution were prepared with assay buffer (20 mM HEPES, 0.01% Triton X-100, 1 mM DTT, pH 7.5) and mixed and incubated in a well of polypropylene 384 well microplate for 5 hours at room temperature. 2) […] of Termination Buffer (QuickScout Screening Assist MSA; Carna Biosciences) was added to the well. 3) The reaction mixture was applied to LabChip system (Perkin Elmer), and the product and substrate peptide peaks were separated and quantitated. 4) The kinase reaction was evaluated by the product ratio calculated from peak heights of product (P) and substrate (S) peptides (P/(P+S)).
Reaction time is 5 hours.
The readout value of reaction control (complete reaction mixture) was set as a 0% inhibition, and the readout value of background (Enzyme(−)) was set as a 100% inhibition, then the percent inhibition of each test solution was calculated.
IC50 value was calculated from concentration vs. % Inhibition curves by fitting to a four parameter logistic curve.

Cdc7/ASK, sequence (O00311 whole entry): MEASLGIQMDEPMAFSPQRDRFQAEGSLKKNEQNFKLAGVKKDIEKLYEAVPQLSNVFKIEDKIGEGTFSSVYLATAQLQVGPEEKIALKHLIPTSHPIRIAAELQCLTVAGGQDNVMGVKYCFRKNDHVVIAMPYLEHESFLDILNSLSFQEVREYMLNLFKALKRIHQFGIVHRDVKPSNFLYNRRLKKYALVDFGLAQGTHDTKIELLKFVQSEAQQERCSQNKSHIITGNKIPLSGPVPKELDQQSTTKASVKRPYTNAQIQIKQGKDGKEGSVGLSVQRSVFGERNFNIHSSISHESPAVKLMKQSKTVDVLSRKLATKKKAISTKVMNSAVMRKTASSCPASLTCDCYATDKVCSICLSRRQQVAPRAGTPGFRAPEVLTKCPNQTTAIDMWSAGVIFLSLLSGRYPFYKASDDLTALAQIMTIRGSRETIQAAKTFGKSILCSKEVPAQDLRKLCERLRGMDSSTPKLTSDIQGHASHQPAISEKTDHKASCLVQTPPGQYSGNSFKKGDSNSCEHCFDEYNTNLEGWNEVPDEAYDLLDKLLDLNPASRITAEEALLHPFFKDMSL
Cdc7/ASK, sequence (Q9UBU7 whole entry partner): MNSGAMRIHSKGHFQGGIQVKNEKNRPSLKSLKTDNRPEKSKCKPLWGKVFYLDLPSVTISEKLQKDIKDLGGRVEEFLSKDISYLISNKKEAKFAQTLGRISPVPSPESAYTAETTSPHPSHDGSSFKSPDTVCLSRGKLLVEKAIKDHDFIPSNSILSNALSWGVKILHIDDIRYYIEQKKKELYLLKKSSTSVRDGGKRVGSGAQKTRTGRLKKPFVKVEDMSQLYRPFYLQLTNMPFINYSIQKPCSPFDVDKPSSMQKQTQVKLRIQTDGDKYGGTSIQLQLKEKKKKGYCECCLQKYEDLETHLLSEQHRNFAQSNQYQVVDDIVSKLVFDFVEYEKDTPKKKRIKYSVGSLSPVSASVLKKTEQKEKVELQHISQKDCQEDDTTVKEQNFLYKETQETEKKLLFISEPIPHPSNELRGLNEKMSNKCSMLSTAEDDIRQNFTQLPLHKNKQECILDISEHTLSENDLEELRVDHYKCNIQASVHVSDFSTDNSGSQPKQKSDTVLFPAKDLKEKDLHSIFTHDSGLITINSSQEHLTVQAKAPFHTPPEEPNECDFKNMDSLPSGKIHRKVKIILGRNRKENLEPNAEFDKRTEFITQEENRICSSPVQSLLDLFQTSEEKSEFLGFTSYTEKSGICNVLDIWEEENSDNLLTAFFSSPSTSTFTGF

As to `O=c1[nH]c(-c2ccnc(F)c2)nc(N2CCNCC(F)C2)c1Cl` (single isomer, unassigned) [Compound 379, 5-chloro-4-(6-fluoro-1,4-diazepan-1-yl)-2-(2-fluoro-4-pyridyl)-1H-pyrimidin-6-one hydrochloride], in test [1] (hydrochloride), the “Biomarker Method 3 (pEC50)” value is given as 5.88. The IC50 in test [2] was 7.94 nM.
`O=c1[nH]c(-c2ccnc(F)c2)nc(N2CCNCC(F)C2)c1Cl` (single isomer, unassigned) [Compound 380, 5-chloro-4-(6-fluoro-1,4-diazepan-1-yl)-2-(2-fluoro-4-pyridyl)-1H-pyrimidin-6-one hydrochloride]: the “Biomarker Method 3 (pEC50)” value in test [1] (hydrochloride) is recorded as 6.70. In addition, in test [2], the IC50 was 3.98 nM.
Taken in the same sequence, the figures for `CC(C)(F)C1CN(c2nc(-c3ccnc(F)c3)[nH]c(=O)c2Cl)CCN1` (single isomer, unassigned) [Compound 381, 5-chloro-4-[3-(1-fluoro-1-methyl-ethyl)piperazin-1-yl]-2-(2-fluoro-4-pyridyl)-1H-pyrimidin-6-one hydrochloride] were 5.32 and 70.8 nM.
In the case of `CC(C)(F)C1CN(c2nc(-c3ccnc(F)c3)[nH]c(=O)c2Cl)CCN1` (single isomer, unassigned) [Compound 382, 5-chloro-4-[3-(1-fluoro-1-methyl-ethyl)piperazin-1-yl]-2-(2-fluoro-4-pyridyl)-1H-pyrimidin-6-one hydrochloride], in test [1] (hydrochloride), the “Biomarker Method 3 (pEC50)” value amounted to 6.16. Further, in test [2], the IC50 is 11.7 nM.
Consider `Cl.O=c1[nH]c(-c2ccnc(F)c2)nc(N2CCNCC2C(F)(F)F)c1Cl` (single isomer, unassigned) [Compound 383], for which, in test [1], the “Biomarker Method 3 (pEC50)” value is recorded as 6.67. In test [2], the IC50 is 4.47 nM.
The corresponding values for `Cl.O=c1[nH]c(-c2ccnc(F)c2)nc(N2CCNCC2C(F)(F)F)c1Cl` (single isomer, unassigned) [Compound 384] are 5.33 and 42.7 nM.
Taken in the same sequence, the figures for `Cl.O=c1[nH]c(-c2ccncc2)nc(N2CCNCC2C(F)(F)F)c1Cl` (single isomer, unassigned) [Compound 387] were 6.51 and 6.03 nM.
Taken in the same sequence, the figures for `Cl.O=c1[nH]c(-c2ccncc2)nc(N2CCNCC2C(F)(F)F)c1Cl` (single isomer, unassigned) [Compound 388] were 5.29 and 91.2 nM.
As for `Cl.O=c1[nH]c(-c2ccnc(F)c2)nc(N2CCNCC2C(F)F)c1Cl` (single isomer, unassigned) [Compound 389], the “Biomarker Method 3 (pEC50)” value in test [1] came out at 5.68. The IC50 in test [2] is 21.4 nM.
Taken in the same sequence, the figures for `Cl.O=c1[nH]c(-c2ccnc(F)c2)nc(N2CCNCC2C(F)F)c1Cl` (single isomer, unassigned) [Compound 390] were 6.97 and 4.27 nM.
The corresponding values for `Cl.O=c1[nH]c(-c2ccnc(F)c2)nc(N2CCNC(C3CC3)C2)c1Cl` (single isomer, unassigned) [Compound 393] are 5.90 and 13.8 nM.
Taken in the same sequence, the figures for `Cl.O=c1[nH]c(-c2ccnc(F)c2)nc(N2CCNC(C3CC3)C2)c1Cl` (single isomer, unassigned) [Compound 394] were 5.26 and 70.8 nM.
Consider `C[C@H]1CN[C@@H](C(F)(F)F)CN1c1nc(-c2ccnc(F)c2)[nH]c(=O)c1Cl.Cl` (single isomer, unassigned) [Compound 395, Cis-5-chloro-2-(2-fluoro-4-pyridyl)-4-[2-methyl-5-(trifluoromethyl)piperazin-1-yl]-1H-pyrimidin-6-one hydrochloride], for which the “Biomarker Method 3 (pEC50)” value in test [1] (hydrochloride) was 5.67. The IC50 in test [2] was 7.76 nM.
The corresponding values for `C[C@H]1CN[C@@H](C(F)(F)F)CN1c1nc(-c2ccnc(F)c2)[nH]c(=O)c1Cl.Cl` (single isomer, unassigned) [Compound 396, Cis-5-chloro-2-(2-fluoro-4-pyridyl)-4-[2-methyl-5-(trifluoromethyl)piperazin-1-yl]-1H-pyrimidin-6-one hydrochloride] are 5.11 and 135 nM.
Take `O=c1[nH]c(-c2ccnc(F)c2)nc(N2CCNCC2C(F)(F)F)c1Cl` (centres unmarked) [Compound 313, 5-chloro-2-(2-fluoro-4-pyridyl)-4-[2-(trifluoromethyl)piperazin-1-yl]-1H-pyrimidin-6-one hydrochloride]: the EC50 in test [1] was 759 nM. Further, in test [2], the IC50 is 8.51 nM.
Taken in the same sequence, the figures for `O=c1[nH]c(-c2ccnc(F)c2)nc(N2CCNCC(F)C2)c1Cl` (centres unmarked) [Compound 373] were 389 nM and 5.25 nM.
`O=c1[nH]c(-c2ccncc2)nc(N2CCNCC(F)(F)C2)c1Cl` [Compound 374]: the EC50 in test [1] was 437 nM. In test [2], the IC50 was 5.75 nM.
The corresponding values for `O=c1[nH]c(-c2ccnc(F)c2)nc(N2CCNCC(C(F)(F)F)C2)c1Cl` (centres unmarked) [Compound 375] are 1230 nM and 7.41 nM.
As to `O=c1[nH]c(-c2ccnc(F)c2)nc(N2CCNCC2C(F)F)c1Cl` (centres unmarked) [Compound 376], the EC50 in test [1] was 141 nM. Besides, the IC50 in test [2] was 5.5 nM.
The corresponding values for `O=c1[nH]c(-c2ccnc(F)c2)nc(N2CCNCC23CC3)c1Cl` [Compound 377] are 148 nM and 4.37 nM.
As to `Cl.O=c1[nH]c(-c2ccnc(F)c2)nc(N2CCNCC(C(F)(F)F)C2)c1Cl` (centres unmarked) [Compound 385], in test [1], the “Biomarker Method 3 (pEC50)” value stood at 5.87. Besides, in test [2], the IC50 was 11.5 nM.
Turning to `Cl.O=c1[nH]c(-c2ccnc(F)c2)nc(N2CCNCC(C(F)(F)F)C2)c1Cl` (centres unmarked) [Compound 386], the “Biomarker Method 3 (pEC50)” value in test [1] was 6.00. The IC50 in test [2] is 5.62 nM.
Turning to `O=c1[nH]c(-c2ccncc2)nc(N2CCNCC2C(F)F)c1Cl` (centres unmarked) [Compound 391], the EC50 in test [1] is 3550 nM. The IC50 in test [2] is 35.5 nM.
The corresponding values for `CC(F)(F)C1CNCCN1c1nc(-c2ccnc(F)c2)[nH]c(=O)c1Cl` (centres unmarked) [Compound 392] are 5750 nM and 38.9 nM.
Taken in the same sequence, the figures for `O=c1[nH]c(-c2ccncc2F)nc(N2CCNCC(F)(F)C2)c1Cl` [Compound 399, 5-chloro-4-(6,6-difluoro-1,4-diazepan-1-yl)-2-(3-fluoro-4-pyridyl)-1H-pyrimidin-6-one hydrochloride] were 1660 nM and 12.6 nM.

The values are drawn from patent publication US10919896B2, “Preparation and uses of pyrimidinone derivatives” (Cancer Research Technology Limited, priority 2016, dated 2021).
